pIC50: −log10 of the molar value.
Biological target: T1, oxidase type xanthine oxidase (derived from buttermilk) (Bos taurus, UniProt P80457)
T1 construct: oxidase type xanthine oxidase (derived from buttermilk, supplied by Calbiochem Novabiochem Corp.); purchased Calbiochem Novabiochem Corp; host or cells: buttermilk (natural source)
Experiment: Xanthine oxidase inhibitory activity (absorbance change at 290 nm)
Format: biochemical
Conditions: xanthine substrate, 100 mM phosphate buffer, absorbance at 290 nm for 5 minutes; read-out: Inhibitory Activity (50% inhibitory concentration with respect to oxidase type xanthine oxidase)
Experimental: The xanthine oxidase inhibitory activity was measured for the compounds synthesized according to the above Examples.
After a test compound was dissolved in DMSO (manufactured by Sigma Co.) so that the concentration is 20 mM, the test compound was prepared and used at a desired concentration at the time of use.
The evaluation of the xanthine oxidase inhibitory activity of the compounds of the present invention was conducted by partially modifying the method described in the literature (Method Enzymatic Analysis, 1, 521-522, 1974). The present evaluation is based on the oxidase type xanthine oxidase inhibitory activity evaluation. That is, a xanthine (manufactured by Sigma Co.) solution prepared at 10 mM in advance using a 20 mM sodium hydroxide solution was adjusted to 30 μM using a 100 mM phosphate buffer solution, and 75 μL/well of each solution was added into a 96-well plate. Aliquots (1.5 μL/well) of each test sample, which was diluted with DMSO so that the concentration is 100 times the final concentration, were added into a 96-well plate, and after mixing, the absorbance at 290 nm was measured by a microplate reader SPECTRA MAX Plus 384 (manufactured by Molecular Devices, LLC). Subsequently, oxidase type xanthine oxidase (derived from buttermilk, supplied by Calbiochem Novabiochem Corp.) was prepared at 30.6 mU/mL using a 100 mM phosphate buffer solution and 73.5 μL/well of each solution was added. Immediately after mixing, the change in absorbance at 290 nm was measured for 5 minutes. The enzyme activity when DMSO was used instead of a test compound solution was defined as 100%, the inhibitory rate of the test compounds was calculated and the 50% inhibitory concentration with respect to oxidase type xanthine oxidase was calculated by fitting to the dose-response curve.
Note that the symbols (+, ++, +++) in the table represent inhibitory activity values as shown below.

T1 sequence (P80457 whole entry): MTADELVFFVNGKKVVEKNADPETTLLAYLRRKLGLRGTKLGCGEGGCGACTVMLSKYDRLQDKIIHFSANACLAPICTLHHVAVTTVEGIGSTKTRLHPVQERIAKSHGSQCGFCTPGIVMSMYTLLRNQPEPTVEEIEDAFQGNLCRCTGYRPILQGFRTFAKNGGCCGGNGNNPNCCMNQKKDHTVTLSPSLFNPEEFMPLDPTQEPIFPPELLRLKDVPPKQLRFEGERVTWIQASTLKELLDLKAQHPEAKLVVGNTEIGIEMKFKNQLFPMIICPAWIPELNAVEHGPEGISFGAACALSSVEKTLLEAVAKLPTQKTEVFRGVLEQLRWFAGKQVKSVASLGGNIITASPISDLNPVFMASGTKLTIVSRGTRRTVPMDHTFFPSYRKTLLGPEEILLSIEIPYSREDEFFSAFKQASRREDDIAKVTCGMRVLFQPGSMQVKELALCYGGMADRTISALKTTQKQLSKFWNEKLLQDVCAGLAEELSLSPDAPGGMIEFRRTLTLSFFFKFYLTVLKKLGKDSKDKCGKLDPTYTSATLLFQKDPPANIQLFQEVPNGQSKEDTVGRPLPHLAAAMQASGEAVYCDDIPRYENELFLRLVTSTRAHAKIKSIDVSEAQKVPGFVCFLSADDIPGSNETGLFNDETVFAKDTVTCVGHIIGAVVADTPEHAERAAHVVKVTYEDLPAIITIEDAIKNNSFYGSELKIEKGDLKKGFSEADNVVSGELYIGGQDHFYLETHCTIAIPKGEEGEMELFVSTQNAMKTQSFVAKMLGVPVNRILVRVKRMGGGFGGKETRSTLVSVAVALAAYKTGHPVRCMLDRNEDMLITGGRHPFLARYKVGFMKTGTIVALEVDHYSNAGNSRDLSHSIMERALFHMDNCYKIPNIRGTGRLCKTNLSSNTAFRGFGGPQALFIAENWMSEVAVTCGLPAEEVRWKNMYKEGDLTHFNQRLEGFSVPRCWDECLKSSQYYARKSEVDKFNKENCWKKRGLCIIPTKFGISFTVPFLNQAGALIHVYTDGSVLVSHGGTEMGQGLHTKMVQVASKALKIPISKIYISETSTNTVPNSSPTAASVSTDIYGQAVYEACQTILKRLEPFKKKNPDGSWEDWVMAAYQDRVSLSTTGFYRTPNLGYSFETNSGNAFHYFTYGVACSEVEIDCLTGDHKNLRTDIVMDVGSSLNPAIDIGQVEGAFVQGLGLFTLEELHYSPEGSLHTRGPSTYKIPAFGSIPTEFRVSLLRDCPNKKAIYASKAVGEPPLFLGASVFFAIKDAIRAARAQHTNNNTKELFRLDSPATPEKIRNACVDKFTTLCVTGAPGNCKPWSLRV

SMILES | pIC50
CCOc1cccc(-c2cnc(-n3cc(C(=O)O)cn3)cc2C#N)c1 [Compound 30, 1-[4-cyano-5-(3-ethoxyphenyl)pyridin-2-yl]-1H-pyrazole-4-carboxylic acid] | 8.30 to 9.00
Cc1ccc(F)c(-c2ncc(-n3cc(C(=O)O)cn3)cc2C#N)c1 [Compound 79, 1-[5-cyano-6-(2-fluoro-5-methylphenyl)pyridin-3-yl]-1H-pyrazole-4-carboxylic acid] | ≤ 8.00
Cc1cc(-c2ncc(-n3cc(C(=O)O)cn3)cc2C#N)ccc1F [Compound 82, 1-[5-cyano-6-(4-fluoro-3-methylphenyl)pyridin-3-yl]-1H-pyrazole-4-carboxyic acid] | ≤ 8.00
N#Cc1cc(-n2cc(C(=O)O)cn2)ncc1-c1ccc(OC(F)(F)F)cc1 [Compound 44, 1-{4-cyano-5-[4-(trifluoromethoxy)phenyl]pyridin-2-yl}-1H-pyrazole-4-carboxylic acid] | 8.30 to 9.00
N#Cc1nc(-n2cc(C(=O)O)cn2)ccc1-c1ccc(F)cc1 [Compound 89] | ≤ 8.00
COc1cnccc1-c1cnc(-n2cc(C(=O)O)cn2)cc1C#N [Compound 24, 1-[4-cyano-5-(3-methoxypyridin-4-yl)pyridin-2-yl]-1H-pyrazole-4-carboxylic acid] | ≤ 8.00
N#Cc1cc(-n2cc(C(=O)O)cn2)ncc1-c1ccc(C(F)(F)F)cc1 [Compound 43, 1-{4-cyano-5-[4-(trifluoromethyl)phenyl]pyridin-2-yl}-1H-pyrazole-4-carboxylic acid] | 8.30 to 9.00
Cc1ccc(-c2cnc(-n3cc(C(=O)O)cn3)cc2C#N)cc1 [Compound 14, 1-[4-cyano-5-(4-methylphenyl)pyridin-2-yl]-1H-pyrazole-4-carboxylic acid] | 8.30 to 9.00
N#Cc1cc(-n2cc(C(=O)O)cn2)ncc1-c1cc(F)ccc1F [Compound 35, 1-[4-cyano-5-(2,5-difluorophenyl)pyridin-2-yl]-1H-pyrazole-4-carboxylic acid] | 8.30 to 9.00
N#Cc1cc(-n2cc(C(=O)O)cn2)ncc1-c1csc2ccccc12 [Compound 61, 1-[5-(1-benzothiophen-3-yl)-4-cyanopyridin-2-yl]-1H-pyrazole-4-carboxylic acid] | 8.30 to 9.00

The remaining lines, values ahead:

pIC50 | SMILES
8.30 to 9.00 | N#Cc1cc(-n2cc(C(=O)O)cn2)ncc1-c1ccc(N2CCOCC2)cc1 [Compound 64, 1-{4-cyano-5-[4-(morpholine-4-yl)phenyl]pyridine-2-yl}-1H-pyrazole-4-carboxylic acid]
8.30 to 9.00 | Cc1cccc(-c2cnc(-n3cc(C(=O)O)cn3)cc2C#N)c1 [Compound 10, 1-[4-cyano-5-(3-methylphenyl)pyridin-2-yl]-1H-pyrazole-4-carboxylic acid]
8.30 to 9.00 | CC(C)c1ccc(-c2cnc(-n3cc(C(=O)O)cn3)cc2C#N)cc1 [Compound 47, 1-[4-cyano-5-[4-(propane-2-yl)phenyl]pyridin-2-yl}-1H-pyrazole-4-carboxylic acid]
8.30 to 9.00 | N#Cc1cc(-n2cc(C(=O)O)c(N)n2)ncc1-c1ccccc1F [Compound 98, 3-amino-1-[4-cyano-5-(2-fluorophenyl)pyridin-2-yl]-1H-pyrazole-4-carboxylic acid]
≤ 8.00 | N#Cc1cc(-n2cc(C(=O)O)cn2)ncc1-c1ccccc1OC(F)(F)F [Compound 9, 1-{4-cyano-5-[2-(trifluoromethoxy)phenyl]pyridin-2-yl]-1H-pyrazole-4-carboxylic acid]
8.30 to 9.00 | N#Cc1cc(-n2cc(C(=O)O)c(N)n2)ncc1-c1ccc(Cl)cc1 [Compound 100, 3-amino-1-[4-cyano-5-(4-chlorophenyl)pyridin-2-yl]-1H-pyrazole-4-carboxylic acid]
8.30 to 9.00 | N#Cc1cc(-n2cc(C(=O)O)cn2)ncc1-c1ccc(OCc2ccccc2)cc1 [Compound 66, 1-{5-[4-(benzyloxy)phenyl]-4-cyanopyridine-2-yl}-1H-pyrazole-4-carboxylic acid]
≤ 8.00 | Cc1cccc(-c2ccc(-n3cc(C(=O)O)cn3)nc2C#N)c1 [Compound 92, 1-[6-cyano-5-(3-methylphenyl)pyridin-2-yl]-1H-pyrazole-4-carboxylic acid]

From patent US9617240B2 (TEIJIN PHARMA LIMITED, priority 2013, dated 2017)
